Reference: ChEMBL document CHEMBL5370626, “Targeting the Subpocket Enables the Discovery of Thiadiazole-Pyridazine Derivatives as Glutaminase C Inhibitors” (ACS Med Chem Lett, 2023)
Active and inactive are the calls of the source. The rule behind the calls is not given here.

Key:
[1] = Mutagenicity in Salmonella typhimurium TA1535 measured at 1.5 to 1000 ug per well for 48 to 72 hrs in presence of S9 liver fraction by mini-Ames test; format: toxicity, subcellular, Salmonella enterica subsp. enterica serovar Typhimurium; conditions: dose lower 1.5 µg, time lower 48 hrs, dose upper 1000 µg, time upper 72 hrs
[2] = Mutagenicity in Salmonella typhimurium TA1537 measured at 1.5 to 1000 ug per well for 48 to 72 hrs by mini-Ames test; format: toxicity, Salmonella enterica subsp. enterica serovar Typhimurium; conditions: in vivo; dose lower 1.5 µg, time lower 48 hrs, dose upper 1000 µg, time upper 72 hrs
[3] = molecular target: Sodium channel protein type 5 subunit alpha (Homo sapiens, UniProt Q14524); experiment: Inhibition of human Nav1.5 channel stably expressed in CHO cells at -120 mV holding potential by whole cell patch-clamp assay; format: toxicity, cell-based
Sequence of Sodium channel protein type 5 subunit alpha (Q14524 whole entry): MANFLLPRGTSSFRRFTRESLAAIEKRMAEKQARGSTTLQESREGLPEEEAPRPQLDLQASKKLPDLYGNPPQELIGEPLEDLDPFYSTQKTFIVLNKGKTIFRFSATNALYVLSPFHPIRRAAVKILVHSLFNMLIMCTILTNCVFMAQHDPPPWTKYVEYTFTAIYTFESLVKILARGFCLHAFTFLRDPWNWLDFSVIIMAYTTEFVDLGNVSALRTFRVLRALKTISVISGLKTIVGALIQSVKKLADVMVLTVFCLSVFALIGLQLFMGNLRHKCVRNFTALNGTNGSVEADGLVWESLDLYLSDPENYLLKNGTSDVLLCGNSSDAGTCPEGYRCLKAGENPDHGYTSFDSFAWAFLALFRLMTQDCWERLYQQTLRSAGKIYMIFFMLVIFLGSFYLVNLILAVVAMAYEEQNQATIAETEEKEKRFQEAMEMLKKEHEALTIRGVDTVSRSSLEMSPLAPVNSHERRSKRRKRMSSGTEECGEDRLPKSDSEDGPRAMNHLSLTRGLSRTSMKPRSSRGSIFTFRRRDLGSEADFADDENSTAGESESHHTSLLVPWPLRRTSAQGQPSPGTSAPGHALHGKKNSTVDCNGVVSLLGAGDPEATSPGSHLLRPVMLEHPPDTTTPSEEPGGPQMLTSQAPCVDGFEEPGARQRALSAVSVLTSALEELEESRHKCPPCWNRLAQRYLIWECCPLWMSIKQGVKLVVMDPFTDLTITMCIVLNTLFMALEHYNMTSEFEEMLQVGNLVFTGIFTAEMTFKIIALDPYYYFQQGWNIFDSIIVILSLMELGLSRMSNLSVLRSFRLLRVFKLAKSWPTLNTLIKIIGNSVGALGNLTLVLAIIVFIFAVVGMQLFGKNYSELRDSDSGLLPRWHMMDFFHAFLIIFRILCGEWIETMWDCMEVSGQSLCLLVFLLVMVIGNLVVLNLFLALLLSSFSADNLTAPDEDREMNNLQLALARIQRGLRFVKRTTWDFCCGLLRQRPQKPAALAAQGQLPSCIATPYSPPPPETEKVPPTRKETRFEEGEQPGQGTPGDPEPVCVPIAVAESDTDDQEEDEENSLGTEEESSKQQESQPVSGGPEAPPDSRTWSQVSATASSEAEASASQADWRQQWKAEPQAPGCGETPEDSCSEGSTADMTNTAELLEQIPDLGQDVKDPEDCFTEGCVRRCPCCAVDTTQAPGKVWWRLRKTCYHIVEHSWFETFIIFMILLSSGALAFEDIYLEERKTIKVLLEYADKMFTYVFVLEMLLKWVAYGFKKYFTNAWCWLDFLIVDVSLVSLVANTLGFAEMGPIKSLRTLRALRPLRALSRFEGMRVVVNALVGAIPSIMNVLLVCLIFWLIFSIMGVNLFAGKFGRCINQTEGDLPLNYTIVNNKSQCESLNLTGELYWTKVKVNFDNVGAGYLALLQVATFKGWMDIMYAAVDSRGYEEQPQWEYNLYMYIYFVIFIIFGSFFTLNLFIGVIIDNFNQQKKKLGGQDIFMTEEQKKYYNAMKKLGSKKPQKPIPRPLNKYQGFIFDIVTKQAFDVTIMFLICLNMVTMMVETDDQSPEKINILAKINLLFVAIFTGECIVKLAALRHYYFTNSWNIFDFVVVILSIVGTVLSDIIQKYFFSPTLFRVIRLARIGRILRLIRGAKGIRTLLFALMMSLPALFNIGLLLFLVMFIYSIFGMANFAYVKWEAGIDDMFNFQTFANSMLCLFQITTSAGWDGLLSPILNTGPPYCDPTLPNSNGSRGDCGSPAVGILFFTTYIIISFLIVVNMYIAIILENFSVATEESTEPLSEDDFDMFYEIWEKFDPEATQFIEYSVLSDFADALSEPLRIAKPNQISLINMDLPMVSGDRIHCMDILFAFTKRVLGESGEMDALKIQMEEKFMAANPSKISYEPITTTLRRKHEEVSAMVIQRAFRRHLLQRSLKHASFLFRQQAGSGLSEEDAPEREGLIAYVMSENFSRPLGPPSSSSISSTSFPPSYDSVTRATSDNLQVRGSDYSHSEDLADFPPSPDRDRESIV

[4] = AUC(0 to t) in Sprague-Dawley rat plasma at 100 mg/kg, po measured up to 48 hrs by LC-MS/MS analysis; format: ADME, organism-based; set-up: dose 100 mg/kg, time < 48 hrs, route po
[5] = MRT(0 to infinity) in Sprague-Dawley rat plasma at 100 mg/kg, po measured up to 48 hrs by LC-MS/MS analysis; format: ADME, organism-based
[6] = AUC(0 to infinity) in Sprague-Dawley rat plasma at 100 mg/kg, po measured up to 48 hrs by LC-MS/MS analysis; format: ADME, organism-based; set-up: dose 100 mg/kg, time < 48 hrs, route po
[7] = (§1) Inhibition of human recombinant GAC K320A mutant (73 to 598 residues ) expressed in Escherichia coli BL21 (DE3) cells incubated for 10 mins by fluorometric assay
Homo sapiens = organism: Homo sapiens; experiment: as §1
[8] = Half life in Sprague-Dawley rat plasma at 100 mg/kg, po measured up to 48 hrs by LC-MS/MS analysis; format: ADME, organism-based
[9] = Cmax in Sprague-Dawley rat plasma at 100 mg/kg, po measured up to 48 hrs by LC-MS/MS analysis; format: ADME, organism-based; set-up: dose 100 mg/kg, time < 48 hrs, route po
[10] = Tmax in Sprague-Dawley rat plasma at 100 mg/kg, po measured up to 48 hrs by LC-MS/MS analysis; format: ADME, organism-based
[11] = Mutagenicity in Salmonella typhimurium TA1537 measured at 1.5 to 1000 ug per well for 48 to 72 hrs in presence of S9 liver fraction by mini-Ames test; format: toxicity, subcellular, Salmonella enterica subsp. enterica serovar Typhimurium; conditions: dose lower 1.5 µg, time lower 48 hrs, dose upper 1000 µg, time upper 72 hrs
[12] = molecular target: T1, Glutaminase kidney isoform, mitochondrial (Homo sapiens) (UniProt O94925); experiment: Inhibition of GAC (unknown origin)
T1 sequence (whole entry): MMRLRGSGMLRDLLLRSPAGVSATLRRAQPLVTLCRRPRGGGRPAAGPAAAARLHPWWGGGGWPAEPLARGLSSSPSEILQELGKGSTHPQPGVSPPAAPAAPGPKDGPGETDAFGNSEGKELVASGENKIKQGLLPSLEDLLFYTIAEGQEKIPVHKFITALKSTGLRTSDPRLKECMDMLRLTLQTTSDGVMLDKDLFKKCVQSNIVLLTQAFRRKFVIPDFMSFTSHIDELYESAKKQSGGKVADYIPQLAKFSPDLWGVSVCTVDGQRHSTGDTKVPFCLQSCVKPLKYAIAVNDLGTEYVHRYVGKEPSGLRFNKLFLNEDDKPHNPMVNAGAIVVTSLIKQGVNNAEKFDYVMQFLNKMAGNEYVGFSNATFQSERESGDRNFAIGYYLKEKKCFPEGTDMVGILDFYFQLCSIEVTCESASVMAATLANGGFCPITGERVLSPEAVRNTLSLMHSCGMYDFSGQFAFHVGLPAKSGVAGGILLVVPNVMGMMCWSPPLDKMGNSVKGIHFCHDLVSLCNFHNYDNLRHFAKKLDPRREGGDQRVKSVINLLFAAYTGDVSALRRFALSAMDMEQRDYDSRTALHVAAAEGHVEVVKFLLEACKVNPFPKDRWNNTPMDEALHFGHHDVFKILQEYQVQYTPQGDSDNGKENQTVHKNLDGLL

[13] = molecular target: T1, Glutaminase kidney isoform, mitochondrial (Homo sapiens); experiment: Inhibition of human GAC in A549 cells assessed as induction of ROS level incubated for 16 hrs by DCFH-DA staining based flow cytometric analysis; format: cell-based; conditions: dose 100-1000 nM
[14] = Clearance in Sprague-Dawley rat plasma at 10 mg/kg, iv measured up to 48 hrs by LC-MS/MS analysis; format: ADME, organism-based
[15] = AUC(0 to t) in Sprague-Dawley rat plasma at 10 mg/kg, iv measured up to 48 hrs by LC-MS/MS analysis; format: ADME, organism-based; set-up: dose 10 mg/kg, time < 48 hrs, route iv
[16] = Mutagenicity in Salmonella typhimurium TA100 measured at 1.5 to 1000 ug per well for 48 to 72 hrs in presence of S9 liver fraction by mini-Ames test; format: toxicity, subcellular, Salmonella enterica subsp. enterica serovar Typhimurium; conditions: dose lower 1.5 µg, time lower 48 hrs, dose upper 1000 µg, time upper 72 hrs
[17] = Cmax in Sprague-Dawley rat plasma at 10 mg/kg, iv measured up to 48 hrs by LC-MS/MS analysis; format: ADME, organism-based; set-up: dose 10 mg/kg, time < 48 hrs, route iv
[18] = molecular target: T1, Glutaminase kidney isoform, mitochondrial (Homo sapiens); experiment: Inhibition of human GAC in A549 cells assessed as reduction in glutamate level at 100 to 1000 nM incubated for 16 hrs by colorimetric assay; format: cell-based; conditions: dose 100-1000 nM
[19] = Mutagenicity in Salmonella typhimurium TA98 measured at 1.5 to 1000 ug per well for 48 to 72 hrs in presence of S9 liver fraction by mini-Ames test; format: toxicity, subcellular, Salmonella enterica subsp. enterica serovar Typhimurium; conditions: dose lower 1.5 µg, time lower 48 hrs, dose upper 1000 µg, time upper 72 hrs
A549 [20] = experiment: Inhibition of colony formation in human A549 cells assessed as reduction of colony number measured after 4 days by crystal violet staining-based colony formation assay; format: functional, cell-based; conditions: dose 10-1000 nM, time 4.0 day
[21] = Mutagenicity in Escherichia coli WP2 uvrA measured at 1.5 to 1000 ug per well for 48 to 72 hrs in presence of S9 liver fraction by mini-Ames test; format: toxicity, subcellular; conditions: dose lower 1.5 µg, time lower 48 hrs, dose upper 1000 µg, time upper 72 hrs
A549 [22] = experiment: Antiproliferative activity against human A549 cells assessed as reduction in cell viability incubated for 72 hrs by Celltiter-glo assay; format: functional, cell-based; conditions: A549, 72 h
[23] = Tmax in Sprague-Dawley rat plasma at 10 mg/kg, iv measured up to 48 hrs by LC-MS/MS analysis; format: ADME, organism-based
A549 [24] = experiment: Inhibition of colony formation in human A549 cells assessed as reduction of colony number at 1 uM measured after 4 days by crystal violet staining-based colony formation assay relative to control; format: functional; conditions: A549, 96 h, time 4 day
[25] = Half life in Sprague-Dawley rat plasma at 10 mg/kg, iv measured up to 48 hrs by LC-MS/MS analysis; format: ADME, organism-based
[26] = molecular target: Voltage-gated inwardly rectifying potassium channel KCNH2 (Homo sapiens, UniProt Q12809); experiment: Inhibition of human ERG expressed in HEK293 cells at -80 mV holding potential by whole cell patch-clamp assay; format: toxicity, cell-based
Sequence of Voltage-gated inwardly rectifying potassium channel KCNH2 (Q12809 whole entry): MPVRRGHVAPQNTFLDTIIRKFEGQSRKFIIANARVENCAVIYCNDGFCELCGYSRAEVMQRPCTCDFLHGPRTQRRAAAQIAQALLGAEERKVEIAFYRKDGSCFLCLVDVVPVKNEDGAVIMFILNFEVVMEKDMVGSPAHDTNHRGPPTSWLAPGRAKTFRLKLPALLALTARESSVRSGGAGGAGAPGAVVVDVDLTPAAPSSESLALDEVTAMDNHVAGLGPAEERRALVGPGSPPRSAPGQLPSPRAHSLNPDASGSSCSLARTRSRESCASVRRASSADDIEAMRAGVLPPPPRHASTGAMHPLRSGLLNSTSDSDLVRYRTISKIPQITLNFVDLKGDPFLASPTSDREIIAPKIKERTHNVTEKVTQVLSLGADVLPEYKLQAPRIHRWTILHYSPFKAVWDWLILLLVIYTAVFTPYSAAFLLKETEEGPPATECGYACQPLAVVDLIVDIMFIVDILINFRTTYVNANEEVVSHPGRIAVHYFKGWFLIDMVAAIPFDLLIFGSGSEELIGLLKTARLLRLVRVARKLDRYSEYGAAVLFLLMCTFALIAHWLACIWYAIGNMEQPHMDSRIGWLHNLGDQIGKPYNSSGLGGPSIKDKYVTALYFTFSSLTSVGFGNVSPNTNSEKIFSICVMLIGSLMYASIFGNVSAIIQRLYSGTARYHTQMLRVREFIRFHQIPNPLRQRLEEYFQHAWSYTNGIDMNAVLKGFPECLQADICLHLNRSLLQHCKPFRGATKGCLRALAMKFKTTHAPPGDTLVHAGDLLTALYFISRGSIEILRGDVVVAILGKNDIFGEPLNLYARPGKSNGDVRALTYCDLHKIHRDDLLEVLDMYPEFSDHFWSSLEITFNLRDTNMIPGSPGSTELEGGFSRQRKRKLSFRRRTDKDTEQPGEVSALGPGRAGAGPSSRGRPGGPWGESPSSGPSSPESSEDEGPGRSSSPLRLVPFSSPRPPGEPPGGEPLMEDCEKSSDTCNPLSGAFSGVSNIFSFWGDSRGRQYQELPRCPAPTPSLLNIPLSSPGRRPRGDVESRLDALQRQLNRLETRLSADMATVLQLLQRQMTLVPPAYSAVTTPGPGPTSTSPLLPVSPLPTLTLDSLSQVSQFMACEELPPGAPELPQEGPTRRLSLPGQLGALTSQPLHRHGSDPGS

[27] = Mutagenicity in Escherichia coli WP2 uvrA measured at 1.5 to 1000 ug per well for 48 to 72 hrs by mini-Ames test; format: toxicity; conditions: in vivo; dose lower 1.5 µg, time lower 48 hrs, dose upper 1000 µg, time upper 72 hrs
[28] = MRT(0 to infinity) in Sprague-Dawley rat plasma at 10 mg/kg, iv measured up to 48 hrs by LC-MS/MS analysis; format: ADME, organism-based
[29] = Mutagenicity in Salmonella typhimurium TA98 measured at 1.5 to 1000 ug per well for 48 to 72 hrs by mini-Ames test; format: toxicity, Salmonella enterica subsp. enterica serovar Typhimurium; conditions: in vivo; dose lower 1.5 µg, time lower 48 hrs, dose upper 1000 µg, time upper 72 hrs
[30] = Oral bioavailability in Sprague-Dawley rat plasma at 100 mg/kg measured up to 48 hrs by LC-MS/MS analysis; format: ADME, organism-based
[31] = Mutagenicity in Salmonella typhimurium TA1535 measured at 1.5 to 1000 ug per well for 48 to 72 hrs by mini-Ames test; format: toxicity, Salmonella enterica subsp. enterica serovar Typhimurium; conditions: in vivo; dose lower 1.5 µg, time lower 48 hrs, dose upper 1000 µg, time upper 72 hrs

O=C(Cc1cccc(Oc2ccccc2)c1)Nc1nnc(N[C@@H]2CCN(c3cccnn3)C2)s1
Activity [1]: Non-Toxic | Activity [2]: Non-Toxic | INH [3]: > 30 µM | AUC(0-t) at 48 h [4]: 2310 ng·h/mL | MRT inf [5]: 3.83 h | AUC(0-inf) [6]: 2330 ng·h/mL | EC50 [7]: 10.3 nM | INH (Homo sapiens): 107 nM | half-life [8]: 2.02 h | Cmax [9]: 487 ng/mL | Tmax [10]: 2 h | Activity [11]: Non-Toxic | INH [12]: 8.9 nM | inhibition [13]: Dose-Dependent Effect | clearance [14]: 36.4 mL/min/kg | AUC(0-t) at 48 h [15]: 4630 ng·h/mL | Activity [16]: Non-Toxic | Cmax [17]: 6500 ng/mL | inhibition [18]: Active | Activity [19]: Non-Toxic | inhibition (A549 [20]): Dose-Dependent Effect | Activity [21]: Non-Toxic | IC50 (A549 [22]): 4.04 nM | Tmax [23]: 1.98 min | inhibition at 1 µM (A549 [24]): ~100% | half-life [25]: 5.06 h | IC50 [26]: 7530 nM | Activity [27]: Non-Toxic | MRT inf [28]: 1.59 h | Activity [29]: Non-Toxic | bioavailability [30]: 5% | Activity [31]: Non-Toxic
